Holding throughout (assay): microbe, parasite or virus in culture
The subject of experiment [1] is Mycobacterium tuberculosis.
In experiment [2] the test system is Mycobacterium tuberculosis. The source holds these as a separate data set.
Experiment [3] concerns Mycobacterium tuberculosis. This is another data set of the same source.

These results are taken from ChEMBL document CHEMBL6078678, “Unveiling the Antimycobacterial Potential of Novel 4-Alkoxyquinolines: Insights into Selectivity, Mechanism of Action, and In Vivo Exposure” (J Med Chem, 2024).

Structures are written as SMILES. A value given as a limit tells only on which side of the number the result lay.

As to `Cc1cc(OCCCNc2ccc(Cl)cc2)c2cc(Br)ccc2n1`, the MIC in experiment [1], in experiment [2] and in experiment [3] was less than 0.05 µM each time.
`COc1ccc2nc(C)cc(OCCCNc3ccc(Br)cc3)c2c1`: the MIC in experiment [1], in experiment [2] and in experiment [3] was less than 0.05 µM in each case.
Consider `Cc1cc(OCCCNc2ccc(Br)cc2)c2cc(Cl)ccc2n1`, for which the MIC in experiment [1], in experiment [2] and in experiment [3] was less than 0.06 µM throughout.
`CCc1ccc(NCCCOc2cc(CC)nc3ccc(Br)cc23)cc1`: the MIC in experiment [1], in experiment [2] and in experiment [3] was less than 0.05 µM throughout.
Take `CCc1ccc(NCCCOc2cc(C)nc3ccc(Br)cc23)cc1`: the MIC in experiment [1], in experiment [2] and in experiment [3] was less than 0.05 µM in each case.
With `COc1ccc2nc(C)cc(OCCCNc3ccc(I)cc3)c2c1`, the MIC in experiment [1], in experiment [2] and in experiment [3] was less than 0.05 µM in each case.
With `CCc1ccc(NCCCOc2cc(C)nc3ccc(Cl)cc23)cc1`, the MIC in experiment [1], in experiment [2] and in experiment [3] was less than 0.06 µM throughout.
